Results on 4 molecules are retold here after publication PMC12604490, “Dual immunomodulatory and antileishmanial potential of TLR7/8 agonists against Leishmania donovani” (Infection and Immunity, 2025).

Series [1] in a line: Cytotoxicity on RAW 264.7 macrophages (MTT, 48 h). It counts as cell-based. Particulars: mouse, RAW 264.7 macrophages, MTT, 48 hours, mean ± SD; read-out: RAW macrophage CC50. The procedure: To evaluate the cytotoxicity and antiamastigote assay, RAW 264.7 macrophages were cultured in Dulbecco’s modified Eagle medium (HiMedia, India), 10% heat-inactivated fetal bovine serum (FBS, Biowest) and cultured at 37°C (5% CO2). The macrophage cell growth was evaluated daily, and the cells were subcultured into a new flask containing fresh cell culture medium once they reached about 80%–90% confluency.
(§1) The cytotoxicity studies were performed using an immune cell line (RAW 264.7 macrophage) and non-immune epithelial cell line (HeLa) by 3-(4,5-dimethylthiazol-2-yl)-2,5-diphenyltetrazolium bromide (MTT) assay. A total of 7,000–10,000 cells/well were supplemented with different concentrations (2–64 μg/mL) of TLR7/8 agonists and incubated for 48 hours. MTT (1 mg/mL) (Hi-Media) was added to each well and kept for 4 hours. The formazan crystals formed were dissolved in 100 µL of dimethyl ulfoxide (DMSO), and absorbance at 550 nm was recorded using a microreader. AmB, MF, and Resiquimod were used as reference drugs. The percentage of cytotoxicity was calculated as [(absorbance of treated well − absorbance of blank) / (absorbance of untreated well − absorbance of blank)] × 100. The CC50 value was calculated with SPSS software. The SI of TLR7/8 agonists was obtained by calculating the ratio of CC50 (RAW 264.7 macrophage and HeLa cells) and IC50 (antipromastigote and antiamastigotes) ([21], [23]).

The subject of the next series is RAW 264.7 macrophages. The series can be described thus: NO production in RAW 264.7 macrophages (Griess reagent). Particulars: RAW 264.7 macrophages, 48 hour treatment at the IC50 value, nitrite by Griess. It counts as cell-based. The procedure:
After 24 hours, non-adherent cells were removed, and adherent cells were incubated with TLR7/8 agonist for 48 hours in the presence or absence of LPS (1 µg/mL) (Biosciences) to evaluate both unstimulated and LPS-stimulated macrophage responses. After 48 hours, the culture supernatant (100 µL) was collected and mixed with an equal volume of Griess reagent (1% sulfanilamide and 0.1% naphthlethylenediamine dihydrochloride in 2.5% phosphoric acid) (Sigma), and absorbance was measured in a microreader at 540 nm. Nitrite concentration was evaluated from a standard curve generated with sodium nitrite ([25]).

Series [2] relates to L. donovani promastigotes. The series can be described thus: In vitro antipromastigote activity (trypan blue count, 48 h). Particulars: Leishmania donovani, mean ± SD. It counts as cell-based, Leishmania donovani MHOM/IN/80/DD8. On the procedure: M199 was added with 0.2% sodium bicarbonate and 10% heat-inactivated fetal bovine serum (FBS; Biowest, France) + antibiotics (gentamycin and streptomycin) by serial subcultures after every 48-72 hours by transferring 0.5-1.0 mL of culture supernatant in fresh medium and kept in a biological oxygen demand (BOD) incubator ([20]). […] The percentage growth inhibition was calculated using the following formulas: Percentage viability=No. of live cells in treated well/No. of live cells in blank well×100 Percentage growth inhibition=100 - percentage viability. The IC50 values were calculated using SPSS software, version 25 ([22]).

The subject of series [3] is intracellular L. donovani amastigotes. The series can be described thus: Antiamastigote activity in infected RAW 264.7 macrophages (Giemsa count, 48 h). It counts as cell-based. Particulars: Leishmania donovani, RAW264.7, intracellular amastigotes in RAW 264.7 macrophages, mean ± SD. On the procedure: The macrophage cell growth was evaluated daily, and the cells were subcultured into a new flask containing fresh cell culture medium once they reached about 80%–90% confluency. […] Macrophages (2 × 10^4/mL) were plated on round coverslips placed in 24-well plates for 24 hours in a CO2 incubator (5% CO2) at 37°C. The coverslips were washed thrice with serum-free medium to remove the non-adherent cells. […] Infected macrophages were incubated with different concentrations of TLR7/8 agonists for 48 hours. After 48 hours, the coverslips were washed with phosphate-buffered saline (PBS), dried, fixed with chilled methanol, Giemsa-stained, and examined under a light microscope. A minimum of 200 macrophages were counted per coverslip to determine the number of amastigotes.

A further series relates to L. infantum. More on the design: method as in PMID 33851916. Particulars: read-out: IC50 (antiamastigote) against L. infantum; cited from earlier work.
Series [4] relates to L. donovani promastigotes. The experiment in a line: Cell cycle progression in promastigotes (propidium iodide, flow cytometry). It counts as cell-based, Leishmania donovani. Particulars: promastigotes incubated with the IC50 for 48 hours; untreated 12.0% ± 1.05%. On the procedure: For analysis of the promastigote cell cycle, 2 × 10^6 promastigotes/mL were briefly incubated with the IC50 of TLR7/8 agonists in a 24-well culture plate. After 48 hours, promastigotes were washed with PBS and fixed with 70% (vol/vol) chilled ethanol. After 1 hour of incubation, parasites were washed with PBS, and the pellet was incubated with 500 µL of DNase-free RNase (200 µg/mL) (Thermo Fisher) for 1 hour. Afterward, parasites were stained with PI dye (50 µg/mL), and the percentage of parasites in the sub-G0/G1 phase was analyzed using FACS Calibur flow cytometry ([20]).

The nature of series [5]: Cytotoxicity on HeLa cells (MTT, 48 h). It counts as cell-based, human. Particulars: human, HeLa cells, MTT, 48 hours, mean ± SD; read-out: HeLa cell CC50. The procedure: (§2) HeLa cells (human cervical epithelial cell line) were grown in RPMI-1640 (HiMedia) with 10% FBS and cultured at 37°C (5% CO2). The cells were evaluated daily using an inverted microscope for any contamination and subcultured after reaching confluency ([21]).
as §1

Another series concerns HeLa cells. The experiment in a line: Cytotoxicity on HeLa cells (MTT, 48 h). It counts as cell-based, human. Particulars: MTT, 48 hours, mean ± SD. On the procedure: as §2, §1
The subject of series [6] is Leishmania in peritoneal macrophages. More on the design: method as in PMID 30991111. Particulars: cited from earlier work.
The test system of another series is Leishmania major. The arrangement: method as in PMID 33531168. Particulars: 80 µM concentration; cited from earlier work.
A further series deals with Leishmania infantum. Particulars: read-out: IC50 against Leishmania infantum; cited from earlier work.

Each structure is given as a SMILES string. Values after ≈ are worked out from the molar mass of the structure shown.

Take `C[C@@H]1[C@H](O)[C@@H](C)/C=C/C=C/C=C/C=C/C=C/C=C/C=C/[C@H](O[C@@H]2O[C@H](C)[C@@H](O)[C@H](N)[C@@H]2O)C[C@@H]2O[C@](O)(C[C@@H](O)C[C@@H](O)[C@H](O)CC[C@@H](O)C[C@@H](O)CC(=O)O[C@H]1C)C[C@H](O)[C@H]2C(=O)O` [Amphotericin B, amphotericin B, reference compound]: the CC50 at 48 h in series [1] stood at 19.1 ± 1 µg/mL (≈ 20.7 µM); in [5] it was 20.2 ± 0.72 µg/mL (≈ 21.8 µM). The molecule also had an NO production in the series with RAW 264.7 macrophages of 20.3 ± 0.8 µM. The values for the IC50 (in series [2]; in series [3]; with L. infantum) were 0.13 ± 0.06 µg/mL (≈ 0.141 µM), 0.2 ± 0.1 µg/mL (≈ 0.216 µM) and 110 ± 30 nM, respectively. The “percentage of parasites in sub-G0/G1 phase” value in series [4] was found to be 57.0%. Also, the “HeLa cell CC50” value in the series on HeLa cells was 16.18 ± 0.7 µg/mL.

For `CCCCCCCCCCCCCCCCOP(=O)([O-])OCC[N+](C)(C)C` [Miltefosine, miltefosine, reference compound], the 50% cytotoxic concentration (CC50) at 48 h was found to be 26 ± 1 µg/mL (≈ 63.8 µM) in [1] and 32.1 ± 0.94 µg/mL (≈ 78.8 µM) in series [5]. The same molecule returned an NO production in the series with RAW 264.7 macrophages of 21.9 ± 0.6 µM. The figures for the IC50 in series [2] and in series [3] were 2.43 ± 0.77 µg/mL (≈ 5.96 µM) and 3.43 ± 0.77 µg/mL (≈ 8.42 µM), respectively. Further, in series [4], the “percentage of parasites in sub-G0/G1 phase” value was 52.3%. Also, in the series with HeLa cells, the “HeLa cell CC50” value is 20.1 ± 0.9 µg/mL. Also, the “IC50 against Leishmania in peritoneal macrophages” value in series [6] was 1.81 µg/mL (≈ 4.44 µM).

On to `COc1cc(/C=C/C(=O)CC(=O)/C=C/c2ccc(O)c(OC)c2)ccc1O` [curcumin], for which the cell death in the series with Leishmania major was 82.5%.

Consider `CC(C)Cn1cnc2c(N)nc3ccccc3c21` [imiquimod], for which the concentration for half-maximal inhibition (IC50) in the series with Leishmania infantum was 235 ± 10 nM.
